The source of these data is article PMC9915956, “Identification of Potent Zika Virus NS5 RNA-Dependent RNA Polymerase Inhibitors Combining Virtual Screening and Biological Assays” (International Journal of Molecular Sciences, 2023).

In data set [1] the target is T1, ZIKV NS5 RdRp (Zika virus, UniProt A0A024B7W1). Put plainly: Fluorescence-based alkaline phosphatase-coupled polymerase assay, RdRp enzymatic inhibition. As to conditions: compounds incubated with RdRp for 30 min; WT-RdRp; read-out: IC50 to inhibit RdRp activity. Format: biochemical. As to the method:
The activity of RdRp was measured by a fluorescence-based alkaline phosphatase-coupled polymerase assay established previously in our lab. Briefly, RdRp catalyzed the transfer of adenosine 5′-monophosphate from γ-(BBT)-ATP to the RNA chain, generating the byproduct BBTppi. Subsequently, BBTppi was hydrolyzed by alkaline phosphatase to fluorescent BBT (ex/em 430/560 nm).
The plasmid pET30a-RdRp, constructed in our laboratory, was transformed into E. coli Transetta (DE3) for RdRp expression and purified. The bacteria were grown in ZYM-5052 culture medium. RdRp with the His tag was loaded on a Ni^2+ HisTrap chelating column and then eluted in a buffer containing imidazole in the ÄKTA system. The purified proteins were verified by SDS-PAGE and Western blotting. RdRp activity was analyzed using a fluorescence-based alkaline phosphatase-coupled polymerase assay. The inhibitory effect of the compounds against RdRp was evaluated using the protocol developed in our laboratory.

Data set [2] has as its system Huh-7 cells. Put plainly: WST-8 cell viability (cytotoxicity) assay. The settings on record: Huh-7 cells. As to the method: (§1) The WST-8 assay was used to evaluate the cytotoxicity of the compounds. Huh-7 cells (1 × 10^4 cells/well) were seeded in a 96-well plate and different concentrations of compounds were added the next day. After a 24 h incubation, the supernatant was discarded and WST-8 reagent (1:10 diluted by DMEM) was added. The cell viability was assessed using a Microplate Reader (ELx808, Biotek, North Chesterfield, VA, USA) at 450 nm.

Another data set is described as follows: in vitro. The settings on record: human. As for the experimental part:
as §1

Data set [3] concerns the target T1, ZIKV NS5 RdRp. Description: SPR binding to immobilized RdRp. As to conditions: CM5 chip, 3.125–50 μM.
Experimental: Thus, SPR assays were carried out. RdRp protein was immobilized on a CM5 sensor chip through amine coupling.
The SPR was carried out using BIAcore T200 (GE Healthcare, Uppsala, Sweden) at 25 °C. RdRp was diluted by 10 mM sodium acetate (pH 4.5) and then immobilized on a CM5 sensor chip using an NHS/EDC amine-coupling kit in 1× PBS-P running buffer. Different concentrations (3.125–50 μM) of compounds flowed through the sensor chip surface and the RUs was detected. The equilibrium dissociation constant (KD) was fitted using the BIAcore Evaluation Software.
In the next data set the test system is dengue virus. The settings on record: by targeting OSBP; read-out: EC50 dengue virus replication; cited from earlier work.
The next data set concerns ZIKV (SMGC-1). Put plainly: Anti-ZIKV activity by FACS of ZIKV E protein-positive cells. Format: cell-based. The settings on record: Zika virus, read-out: EC50 anti-ZIKV activity (reduction of ZIKV E protein-positive cells). As for the experimental part:
Huh-7 cells were infected with ZIKV (SMGC-1) and incubated with different concentrations of compounds. After 48 h, the cells were fixed and permeabilized, followed by staining with the FITC-anti-ZIKV E protein antibody. When detected by FACS, the FITC intensity in the given cell population reflected the ZIKV E protein-positive cells, indicting the cells infected with ZIKV.
Huh-7 cells were seeded into 24-well plates and infected with ZIKV (SMGC-1) at a multiplicity of infection (MOI) of 0.2. […] Chloroquine was used as a positive control. Cells were fixed and permeabilized for 20 min using a Fixation/Permeabilization Solution Kit. After washing, the cells were incubated with FITC-anti-ZIKV E protein antibody for 30 min. Then, ZIKV E protein-positive cells were detected in a FACS Analyzer and analyzed by FlowJo (TreeStar, Ashland, OR, USA). The EC50s of the compounds were calculated as the reduction ratio of ZIKV E protein-positive cells over the concentrations of the compounds.
Background: Flow cytometry measures light scatter and fluorescence of single cells or particles in a stream.

The subject of data set [4] is ZIKV sub-genomic replicon RNA. As to conditions: Hela cells, single concentration of 10 μM; cited from earlier work.
Data set [5] concerns Huh-7 cells. Also on record: method as in PMID 19760134. The settings on record: ≤ 10 μM; cited from earlier work.

Molecules are shown by their SMILES. Read-outs that look alike come from different tables or passages of the source. Where only a bound is given, the exact number is not on record here.

T1 sequence (A0A024B7W1 2786-3423): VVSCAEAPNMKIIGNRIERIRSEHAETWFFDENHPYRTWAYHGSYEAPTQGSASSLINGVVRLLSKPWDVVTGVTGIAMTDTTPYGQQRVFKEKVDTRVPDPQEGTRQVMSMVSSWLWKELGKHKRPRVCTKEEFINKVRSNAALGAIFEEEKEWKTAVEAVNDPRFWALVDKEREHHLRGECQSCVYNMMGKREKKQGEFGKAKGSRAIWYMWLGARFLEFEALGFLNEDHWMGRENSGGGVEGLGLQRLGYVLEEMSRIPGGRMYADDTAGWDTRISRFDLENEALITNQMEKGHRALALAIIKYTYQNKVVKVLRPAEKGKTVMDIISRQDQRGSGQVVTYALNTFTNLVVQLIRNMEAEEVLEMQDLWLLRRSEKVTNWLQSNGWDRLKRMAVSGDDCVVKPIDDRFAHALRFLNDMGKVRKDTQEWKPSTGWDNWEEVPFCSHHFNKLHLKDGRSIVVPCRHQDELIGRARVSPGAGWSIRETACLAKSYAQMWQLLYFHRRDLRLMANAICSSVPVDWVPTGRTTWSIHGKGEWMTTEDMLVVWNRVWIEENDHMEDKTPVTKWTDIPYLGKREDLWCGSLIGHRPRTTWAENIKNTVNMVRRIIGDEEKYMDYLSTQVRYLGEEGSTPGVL

Usually IC50 stands for the midpoint of a concentration-inhibition curve. Consider `CCCCCCOC(=O)NC(=N)c1ccc(NCc2nc3cc(C(=O)N(CCC(=O)OCC)c4ccccn4)ccc3n2C)cc1` [DAB, Dabigatran etexilate], for which the IC50 on ZIKV NS5 RdRp [1] came to 11.3 µM.

For `Cc1cc2c(C(C)C)c(O)c(O)c(C=O)c2c(O)c1-c1c(C)cc2c(C(C)C)c(O)c(O)c(C=O)c2c1O` [GOS, Gossypol (acetic acid)], the “Cytotoxicity (in words) at 5 μM” value in the data set with Huh-7 cells [2] (WST-8, concentration of 5 μM) is “obvious cell toxicity”. The CC50 at 24 h in the data set “in vitro” was found to be 7.79 µM.

For `CCC(C)n1ncn(-c2ccc(N3CCN(c4ccc(OCC5COC(Cn6cncn6)(c6ccc(Cl)cc6Cl)O5)cc4)CC3)cc2)c1=O` (stereo not shown) [ITR, Itraconazole], the IC50 on ZIKV NS5 RdRp [1] was 1.82 µM. Also, at ZIKV NS5 RdRp [3], the “Binding to RdRp by SPR (in words)” value was “almost no binding signals”. Further, the CC50 at 24 h in the data set “in vitro” is more than 100 µM.

As usually defined, the EC50 is the concentration that produces a half-maximal response. As for `CC[C@@H]([C@H](C)O)n1ncn(-c2ccc(N3CCN(c4ccc(OC[C@@H]5CO[C@@](Cn6cncn6)(c6ccc(F)cc6F)C5)cc4)CC3)cc2)c1=O` [POS, Posaconazole], the EC50 is 4.1 µM in the data set on dengue virus and 0.59 µM in the data set on ZIKV (SMGC-1) (Huh-7 cells, ZIKV (SMGC-1) MOI 0.2, 48 h, FACS). In addition, the “Cytotoxicity (in words) at concentrations used in the anti-ZIKV assay” value in the data set with Huh-7 cells [2] (WST-8, 24 h, ≤ 6.4 μM) is on record as “low”. Also, in the data set “in vitro” (Huh-7 cells), the CC50 at 24 h was found to be 101 µM. For the same compound, the “Effect on replication of ZIKV sub-genomic replicon RNA (in words)” value in data set [4] is listed as “inhibit the replication”.

As for `CCN(CC)CCCC(C)Nc1ccnc2cc(Cl)ccc12` (stereo not shown) [chloroquine, Chloroquine], the “Cytotoxicity to Huh-7 cells (in words)” value in the data set on Huh-7 cells [5] was “no significant cytotoxicity”. Besides, in the data set with ZIKV (SMGC-1) (Huh-7, 48 h), the concentration for a half-maximal effect (EC50) amounted to 2.8 µM.
